Experimental findings from paper PMC9827864, “In Situ Inhibitor Synthesis and Screening by Fluorescence Polarization: An Efficient Approach for Accelerating Drug Discovery” (Angewandte Chemie (International Ed. in English), 2022) are described below.

The subject of data set [1] is EPO gene expression in Hep3B cells. As to the kind of experiment: RT-qPCR assay of EPO mRNA. The data set is classed as cell-based, human. The settings on record: reference gene HPRT. In general terms: Real-time PCR tracks product formation cycle by cycle.
The nature of a further data set: Plasma stability (rat). The data set is classed as in vitro ADME. Particulars: 100 μM. The method, then:
A structure of PHD2 in complex with Fe and a 2OG competing inhibitor (PDB ID: 4KBZ) was obtained from PDB website. The structure files of protein and compounds for docking were prepared using the Discovery Studio (DS) 2020 software. A water molecule HOH624, conserved in the active binding site of PHD2, was retained during the docking. Residues of PHD2 around the native ligand (radius = 10 Å) were defined as the binding sites for docking. Subsequently, the ligand was removed; the Fe (II) was retained during the docking. Compounds were docked into the binding sites using GOLD 5.1. Docking procedures were performed using the default setting with 100 genetic algorithm (GA) runs of ligands. […]
17 was preincubated with microsomes from different species (0.5 mg/mL) at 1 μM for 5 min at 37 °C in 100 mM PBS buffer (pH 7.4). […] The samples were centrifuged at 5000 rpm f or 10 min; the supernatants were then analyzed by HPLC. […]
Representative compounds and Roxadustat were formulated in normal saline solution. […] Subsequently, these samples were analyzed for reticulocytes in the center for new drug safety evaluation and research of China Pharmaceutical University (ADVIA 2120 hematology system). […]
Plasma EPO was evaluated using the erythropoietin quantikine ELISA kit for mice (MEP00B). […]
in normal saline solution. […] Plasma was collected by centrifugation at 3000 rpm, these plasmas were detected by E PO […]

For the compound `O=C(N/N=C/c1cccc(O)c1Cl)c1cnc(-c2cccnn2)[nH]c1=O` [compound 17], the “EPO mRNA expression by RT-qPCR” value in data set [1] is “increases EPO mRNA in a concentration‐dependent manner with comparable efficiency to Roxadustat”. The plasma stability entry in “Plasma stability (rat)” was “stable in rat plasma”.
